Assay results as given in patent US20250325689A1, “ANTIBODY-MULTIDRUG CONJUGATE” (UBE CORPORATION, priority 2022, published 2025).
Starred links: 1 amine or outer side, 2 acyl side, 3 side chain; linkers in the order of their positions; H or OH if unused. Non-standard residues stand in square brackets, D forms with d. Residues, ends and D or L forms follow the SMILES beside them. *: point of attachment. Dolaproine = CO[C@@H]([C@@H]1CCCN1)[C@@H](C)C(=O)O; X2 = C[C@@H](N[*:1])[C@@H](OC(=O)[*:2])c1ccccc1; Dil = CC[C@H](C)[C@H](NC)[C@@H](CC(=O)O)OC; X4 = OCC1OC(n2cc(CN*)nn2)C(O)C(O)C1O; NMeV = CN[C@H](C(=O)O)C(C)C

Biological target: T1, porcine tubulin (Sus scrofa, UniProt P02550+P02554)
T1 construct: purchased Cytoskeleton, Inc. BKO11P
Experiment: Tubulin polymerization inhibition test
Type: biochemical
Settings: 37° C., fluorescence measured for 60 minutes
Procedure: For measuring the tubulin polymerization inhibitory action, Tubulin Polymerization Assay Kit (manufactured by Cytoskeleton, Inc., BKO11P) was used. A PIPES buffer containing porcine tubulin, GTP, MgCl2, EGTA, Glycerol, and a fluorescent reporter was prepared under ice-cooling as a reaction solution. The reaction solution was ice-cooled until it was used. A test compound solution was prepared by an aqueous solution containing 1.5% DMSO, and added to a 96 well plate (manufactured by Corning Inc., 3686) at 5 μL/well. The reaction solution was added thereto at 50 μL/well, the plate was placed in a microplate reader (FlexStation 3, manufactured by Molecular Device, LLC) in which the internal temperature was set to 37° C. in advance, and the fluorescence intensity measurement (excitation wavelength: 360 nm, detection wavelength: 420 nm) of each well was started. The fluorescence intensity was measured once every minute, and the measurement was continued for 60 minutes.
The tubulin polymerization inhibition rate (%) was calculated by the following equation. […]

T1 sequence (P02550 whole entry): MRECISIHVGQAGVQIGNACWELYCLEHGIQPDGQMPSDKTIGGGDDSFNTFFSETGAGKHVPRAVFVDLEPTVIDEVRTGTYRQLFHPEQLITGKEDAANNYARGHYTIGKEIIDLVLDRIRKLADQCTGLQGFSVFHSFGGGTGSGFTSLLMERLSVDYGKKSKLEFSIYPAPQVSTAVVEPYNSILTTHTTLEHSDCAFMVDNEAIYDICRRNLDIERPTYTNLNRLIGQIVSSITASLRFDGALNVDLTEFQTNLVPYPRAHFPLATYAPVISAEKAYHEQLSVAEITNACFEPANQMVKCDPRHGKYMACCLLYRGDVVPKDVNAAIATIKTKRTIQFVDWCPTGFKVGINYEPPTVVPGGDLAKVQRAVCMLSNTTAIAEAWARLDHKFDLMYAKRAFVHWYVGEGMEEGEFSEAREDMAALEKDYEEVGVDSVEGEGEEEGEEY
T1 sequence (P02554 whole entry): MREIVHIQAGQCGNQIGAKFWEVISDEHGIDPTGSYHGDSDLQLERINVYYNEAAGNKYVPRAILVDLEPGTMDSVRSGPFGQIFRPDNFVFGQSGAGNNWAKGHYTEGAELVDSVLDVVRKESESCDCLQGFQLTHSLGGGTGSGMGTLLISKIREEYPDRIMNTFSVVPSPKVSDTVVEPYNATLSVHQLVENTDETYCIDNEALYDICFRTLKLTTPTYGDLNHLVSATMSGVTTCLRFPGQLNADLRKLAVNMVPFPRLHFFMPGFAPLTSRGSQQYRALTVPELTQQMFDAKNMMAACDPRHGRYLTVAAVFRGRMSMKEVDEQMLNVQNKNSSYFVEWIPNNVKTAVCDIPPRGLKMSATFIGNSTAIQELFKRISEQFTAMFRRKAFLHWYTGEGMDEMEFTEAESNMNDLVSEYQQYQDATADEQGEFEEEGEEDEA

SMILES: CC[C@H](C)[C@@H]([C@@H](CC(=O)N1CCC[C@H]1[C@H](OC)[C@@H](C)C(=O)N[C@H](C)[C@@H](OC(=O)NCc1cn(C2OC(CO)C(O)C(O)C2O)nn1)c1ccccc1)OC)N(C)C(=O)[C@@H](NC(=O)[C@@H](NC)C(C)C)C(C)C (stereo partly shown) [Example U-018] (H-[NMeV]V[Dil][Dolaproine][X2]-X4)
- IC50: ≤ 3 µM
